Experimental data published in US20090175905A1, “TRANSFECTION REAGENT AND METHOD FOR ENHANCING TRANSFECTION EFFICIENCY” (National Taiwan University of Science and Technology, priority 2008, published 2009).

Key:
mouse muscles = experiment: In vivo transfection of muscles by direct intramuscular injection of naked plasmid plus disaccharides, luciferase luminescence
Description: The following experiments are conducted using naked nucleic acid delivery system for directly transfecting plasmid DNA into the cells of animals, and additional viral or non-viral vector is precluded. The transfection reagent is incorporated with various concentrations of disaccharides as an enhancer, and the effects of disaccharides in the naked nucleic acid delivery system on the cell transfection are observed.
FIG. 9 presents the effects of various disaccharides on the transgene expression of mouse muscles after direct intramuscular injection of naked plasmid. The transfection procedures in these experiments are identical to those described previously in experiment 3. The major differences between the two experiments are the vector applied and the method of transfection as well as the administration route into the body of the […]. The x-axis in FIG. 9 represents the types of disaccharides, and the y-axis represents the luminescent intensity, measured by a luminometer and expressed as relative light unit (RLU) per mg of muscular tissue protein, wherein the luminescent intensity is used as an indicator to evaluate the transfection efficiency.
FIG. 10 presents the effects of trehalose concentrations on the transgene expression of mouse muscles after direct intramuscular injection of naked plasmid. The x-axis in FIG. 10 represents the concentrations of trehalose in the transfection reagent, and the y-axis represents the luminescent intensity, measured by a luminometer and expressed as relative light unit (RLU) per mg of muscular tissue protein. The luminescent intensity is used as an indicator to evaluate transfection efficiency.
[…] presents the effects of gene dosage on the transgene expression of mouse muscles in the presence of trehalose after direct intramuscular injection of naked plasmid. The x-axis in FIG. 11 represents the amount of DNA plasmid, and the y-axis represents the luminescent intensity, measured by a luminometer and expressed as relative light unit (RLU) per mg of muscular tissue protein, wherein the luminescent intensity is used as an indicator to evaluate the transfection efficiency.
FIG. 12 presents the effects of the trehalose on the durations of transgene expression of mouse muscles after direct intramuscular injection of naked plasmid. The x-axis in FIG. 12 represents the days after the intramuscular injection, and the y-axis represents the luminescent intensity, measured by a luminometer and expressed as relative light unit (RLU) per mg of muscular tissue protein, wherein the luminescent intensity is used as an indicator to evaluate the transfection efficiency of gWiz-luciferase plasmid. […] In other words, trehalose might extend the durations of nucleic acid remaining inside the cells, and therefore prolonged the durations of transgene expression.

CHO cells [1] = experiment: In vitro transfection of CHO cells with DNA-PEI plus disaccharides, GFP by flow cytometer; assay type: cell-based, Chinese hamster; conditions: PEI to DNA charge ratio 9:1
Description: In the following experiments, a polyethyleneimine (PEI)-based vector is used to perform cell transfection. Further, various disaccharides are incorporated into the transfection reagent containing DNA and the vector, and the effects of disaccharides on cell transfection are observed.
(§1) FIG. 6 presents the effects of disaccharides on the transfection efficiency of in vitro cultured CHO cells that are transfected with transfection reagents containing PEI and different disaccharides. The x-axis in FIG. 6 represents the concentrations of different disaccharide in the transfection reagent, and the y-axis represents the GFP expression percentage of the transfected CHO cells detected by a flow cytometer. The GFP expression percentage of the transfected CHO cells is used as an indicator of transfection efficiency. […] The effect of disaccharides in the transfection reagent on transfection efficiency is then analyzed. […] In other words, the cell transfection efficiency is enhanced.

MDA-MB-231 = experiment: DNA-PEI transfection with trehalose, GFP expression percentage, MDA-MB-231; assay type: cell-based; conditions: 20 mM trehalose, MDA-MD-231
Description: as §1
FIGS. 7A and & 7B show the optimal trehalose concentrations for enhancing the transfection expression mediated by DNA-PEI complexes in different cell lines. The x-axis in FIGS. 7A and 7B […] represents the concentrations of trehalose in the transfection reagent, and the y-axis represents the GFP expression percentage of the cells as an indicator of transfection efficiency The transfection procedures in these experiments of different cell lines are identical to those described previously for CHO cells in experiment 5. […] Moreover, the extents of enhancement on the transfection efficiency depend on the cell lines. […]

[2] = system: Chinese hamster ovary (CHO) cells; experiment: In vitro transfection of CHO cells with pEGFP-C1 plasmid and DOTAP liposomes plus disaccharides, GFP by flow cytometer; assay type: cell-based; conditions: DOTAP liposomes, appropriate amount of disaccharide
Description: FIG. 2 present the effects of disaccharides on the transgene expression of cultured Chinese hamster ovary (CHO) cells subjected to an in vitro transfection of DNA with a transfection reagent containing DOTAP and various disaccharides. The x-axis in FIG. 2 refers to the disaccharide concentration in the transfection reagent, and the y-axis in FIG. 2 represents the GFP (green fluorescent protein)-positive percentage of the transfected CHO cells measured by a flow cytometer. The GFP-positive percentage of the CHO cells is used as an indicator of transfection efficiency. In the experiments shown in FIG. 2, various concentrations of cellobiose, lactose, sucrose, trehalose and maltose are respectively incorporated into a transfection reagent containing pEGFP-C1 plasmid and DOTAP liposomes, and in vitro transfections are performed with the transfection reagents containing different disaccharides. The GFP-positive percentage of CHO cells is then detected for each transfection reagent sample. […] In other words, the incorporation of a disaccharide into the transfection reagent affects the transfection efficiency. Moreover, the changes in transfection efficiency are related to the type and the concentration of the disaccharide in the transfection reagent. […] More particularly, the transfection efficiency increases from 28% to more than 40% at 180 mM of lactose, sucrose or trehalose in a transfection reagent. The transfection efficiency is doubled when 120 mM of cellobiose is incorporated into a transfection reagent.

CHO cells [3] = experiment: MTT cellular viability of CHO cells transfected with lipid-based carriers plus disaccharides; conditions: DOTAP, DOTAP/Chol, DOTAP/DOPE or LPD vector; nontransfected CHO cells = 100%
Description: FIG. 5 presents the effects of disaccharides on the cellular cytotoxicity of the in vitro cultured CHO cells transfected with transfection reagents containing lipid-based carriers.

With `OC[C@H]1O[C@H](O[C@H]2O[C@H](CO)[C@@H](O)[C@H](O)[C@H]2O)[C@H](O)[C@@H](O)[C@@H]1O` [trehalose] the “duration of transgene expression (muscle luminescence over days after injection)” value (mouse muscles; naked gWiz-luciferase plasmid) was “higher luminescence intensities for a longer period of time”, the “luminescent intensity (RLU per mg of muscular tissue protein) versus control group without disaccharides” value (mouse muscles; naked plasmid, 10 mM disaccharide) was “higher luminescent intensity” and the “transfection efficiency versus control group without trehalose at the same amount of plasmid DNA” value (mouse muscles; naked plasmid, 10 mM trehalose) was “significantly higher”. For the same molecule, the “effect of trehalose concentration on transfection efficiency (muscle luminescent intensity)” value (mouse muscles; naked plasmid, trehalose between about 10 mM to 12.5 mM) was “increases significantly”, the “effect on GFP expression percentage (transfection efficiency)” value (CHO cells [1]) was “significantly increases the GFP expression percentage” and the GFP expression percentage (CHO cells [1]; 180 mM trehalose) was “about 20%”. For the same molecule, the “GFP expression percentage relative to absence of disaccharides” value (CHO cells [1]; 180 mM trehalose) was “about one fold higher”, the “enhancement of percentage of GFP positive cells” value (MDA-MB-231) was “about 50%” and the “effect on transfection efficiency” value [2] was “increases significantly”. The “cellular viability analyzed by the MTT assay” value (CHO cells [3]) was “improve the cellular viabilities”.
